Where a name gives a salt, the structure may show the parent alone.

This note sets out measurements from EP2385948B1, “FUSED THIAZOLO AND OXAZOLO PYRIMIDINONES” (Torrent Pharmaceuticals Limited, priority 2009, dated 2011).

One data set has as its system VEGF. Nature of the data set: In vitro induction of VEGF (ELISA of cell culture supernatant). The format is cell-based. The settings on record: Homo sapiens, Hep3B cell line, 16 hours, relative to vehicle control. How it is done:
Hep3B cell line (ATCC HB8064) was employed. […] Supernatant obtained was analyzed for VEGF by ELISA (R&D systems, USA). […]
For orientation: An ELISA detects its analyte on a solid surface through an enzyme-linked reagent.

The next data set has as its system adrenomedullin mRNA. Put plainly: In vitro induction of adrenomedullin mRNA (real-time PCR, normalized to 18S rRNA). The format is cell-based. The settings on record: Hep3B cell line, relative to vehicle control; for fold induction at 200 µM: Homo sapiens, Hep3B, 6 h. Here is the method: Hep3B cell line (ATCC HB8064) was employed. […] At the end of 6 hours, cells were lysed and total RNA was isolated. Expression of adrenomedullin mRNA along-with expression of 18S rRNA was monitored by real-time PCR. Adrenomedullin mRNA expression was normalized relative to the expression of 18S rRNA. The results were expressed as fold induction of adrenomedullin mRNA relative to vehicle treated control.
In general terms: Quantitative PCR measures a nucleic acid by following its amplification.

The test system of the next data set is erythropoietin. Nature of the data set: In vitro erythropoietin induction (ELISA of cell culture supernatant). The settings on record: for fold induction at 200 µM: read-out: EPO fold induction, Hep3B cell line, 200 uM, 16 hours, relative to vehicle control.

Protocol for erythropoietin: Hep3B cell line (ATCC HB8064) was employed. Induction of erythropoietin was carried out for the indicated dose of compounds for 16 hours duration. At the end of 16 hours, cell culture medium was collected and centrifuged to remove any debris. Supernatant obtained was analyzed for erythropoietin by ELISA (R&D systems, USA). The results were expressed as fold induction as compared to vehicle control.

Regarding `CC1(C)CCc2c(sc3nc(O)c(C(=O)NCC(=O)O)c(=O)n23)C1` [Compound 34, [(2-Hydroxy-7,7-dimethyl-4-oxo-5,6,7,8-tetrahydro-4H-9-thia-1,4a-diaza-fluorene-3-carbonyl)-amino]-acetic acid], the fold induction at 200 µM in the data set with VEGF was 2 to 4; in the data set with adrenomedullin mRNA, 5 to 8; with erythropoietin (Homo sapiens, Hep3B, 16 h), more than 16.
With `O=C(O)CNC(=O)c1c(O)nc2sc3c(n2c1=O)CCN(Cc1ccc(Cl)c(Cl)c1)C3` [Compound 49, {[7-(3,4-Dichloro-benzyl)-2-hydroxy-4-oxo-5,6,7,8-tetrahydro-4H-9-thia-1,4a,7-triaza-fluorene-3-carbonyl]-amino}-acetic acid], the fold induction at 200 µM fell in the range of 5 to 8 in the data set with adrenomedullin mRNA and 5 to 8 with erythropoietin (Homo sapiens, Hep3B, 16 h).
For `O=C(O)CNC(=O)c1c(O)nc2sc3c(n2c1=O)CCN(Cc1ccc(Cl)cc1)C3` [Compound 23, {[7-(4-Chloro-benzyl)-2-hydroxy-4-oxo-5,6,7,8-tetrahydro-4H-9-thia-1,4a,7-triaza-fluorene-3-carbonyl]-amino}-acetic acid], the fold induction at 200 µM in the data set on VEGF lay in the range of 2 to 4; in the data set with adrenomedullin mRNA, 2 to 4; with erythropoietin (Homo sapiens, Hep3B, 16 h), 9 to 16.
As for `O=C(O)CNC(=O)c1c(O)nc2sc3c(n2c1=O)CCN(C(=O)CC1CC1)C3` [Compound 27, {[7-(2-Cyclopropyl-acetyl)-2-hydroxy-4-oxo-5,6,7,8-tetrahydro-4H-9-thia-1,4a,7-triaza-fluorene-3-carbonyl]-amino}-acetic acid], the fold induction at 200 µM in the data set on VEGF was 2 to 4; in the data set on adrenomedullin mRNA, more than 8; with erythropoietin (Homo sapiens, Hep3B, 16 h) it was 9 to 16.
As to `O=C(O)CNC(=O)c1c(O)nc2sc3c(n2c1=O)CCN(Cc1ccc(C(F)(F)F)cc1)C3` [Compound 52, {[2-Hydroxy-4-oxo-7-(4-trifluoromethyl-benzyl)-5,6,7,8-tetrahydro-4H-9-thia-1,4a,7-triaza-fluorene-3-carbonyl]-amino}-acetic acid], the fold induction at 200 µM lay within 5 to 8 with adrenomedullin mRNA and 5 to 8 with erythropoietin (Homo sapiens, Hep3B, 16 h).
For the compound `O=C(O)CNC(=O)c1c(O)nc2sc3c(n2c1=O)CCCCC3` [Compound 82, [(2-Hydroxy-4-oxo-6,7,8,9-tetrahydro-4H,5H-10-thia-1,4a-diaza-benzo[a]azulene-3-carbonyl)-amino]-acetic acid, Disodium salt], the “Adrenomedullin mRNA (fold induction)” value with adrenomedullin mRNA (200 uM, 6 hours, Disodium salt, 360 min) is reported as “+++ (+++ indicates 5-8 fold)”. Moreover, the fold induction at 50 µM with erythropoietin (Homo sapiens, Hep3B, 16 h, read-out: EPO fold induction, Hep3B cell line, 50 uM, 16 hours, relative to vehicle control) was 9 to 16.
As to `CC(C)NC(=S)N1CCc2c(sc3nc(O)c(C(=O)NCC(=O)O)c(=O)n23)C1` [Compound 25, [(2-Hydroxy-7-isopropylthiocarbamoyl-4-oxo-5,6,7,8-tetrahydro-4H-9-thia-1,4a,7-triaza-fluorene-3-carbonyl)-amino]-acetic acid], the fold induction at 200 µM with erythropoietin (Homo sapiens, Hep3B, 16 h) lay in the range of 2 to 4.
The same measure, in the same setting: the figure for `O=C(O)CNC(=O)c1c(O)nc2sc3c(n2c1=O)CCC1(CC1)C3` [Compound 70, N-[(2'-hydroxy-4'-oxo-6',9'-dihydro-4'H,7'H-spiro[cyclopropane-1,8'-pyrimido[2,1-b][1,3]benzothiazol]-3'-yl)carbonyl]glycine] is 2 to 4.
For the compound `CC(NC(=O)c1c(O)nc2sc3c(n2c1=O)CCCCC3)C(=O)O` (stereo not shown) [Compound 32, 2-[(2-Hydroxy-4-oxo-6,7,8,9-tetrahydro-4H,5H-10-thia-1,4a-diaza-benzo[a]azulene-3-carbonyl)-amino]-propionic acid], the fold induction at 200 µM in the data set with VEGF was 2 to 4; with adrenomedullin mRNA, 2 to 4; with erythropoietin (Homo sapiens, Hep3B, 16 h) it was 9 to 16.
`O=C(O)CCNC(=O)c1c(O)nc2sc3c(n2c1=O)CCC3` [Compound 14, 3-[(2-Hydroxy-4-oxo-7,8-dihydro-4H,6H-cyclopenta[4,5]thiazolo[3,2-a]pyrimidine-3-carbonyl)-amino]-propionic acid]: the fold induction at 200 µM with erythropoietin (Homo sapiens, Hep3B, 16 h) lay in the range of 2 to 4.
Still for that read-out and setting: with `O=C(O)CNC(=O)c1c(O)nc2sc3c(n2c1=O)CCN(c1ccc(Cl)nn1)C3` [Compound 35, {[7-(6-Chloro-pyridazin-3-yl)-2-hydroxy-4-oxo-5,6,7,8-tetrahydro-4H-9-thia-1,4a,7-triaza-fluorene-3-carbonyl]-amino}-acetic acid] the figure was less than 2.
Still for that read-out and setting: with `CC1(C)CCc2c(sc3nc(O)c(C(=O)NC(C)(C)C(=O)O)c(=O)n23)C1` [Compound 54, 2-[(2-Hydroxy-7,7-dimethyl-4-oxo-5,6,7,8-tetrahydro-4H-9-thia-1,4a-diaza-fluorene-3-carbonyl)-amino]-2-methyl-propionic acid] the figure was less than 2; with `CC(C)(C)C1CCc2c(sc3nc(O)c(C(=O)NCCC(=O)O)c(=O)n23)C1` (stereo not shown) [Compound 15, 3-[(7-tert-Butyl-2-hydroxy-4-oxo-5,6,7,8-tetrahydro-4H-9-thia-1,4a-diaza-fluorene-3-carbonyl)-amino]-propionic acid], less than 2.
With `CC1(C)CCc2c(sc3nc(O)c(C(=O)NCC(=O)O)c(=O)n23)C1` [Compound 80, [(2-Hydroxy-7,7-dimethyl-4-oxo-5,6,7,8-tetrahydro-4H-9-thia-1,4a-diaza-fluorene-3-carbonyl)-amino]-acetic acid, Disodium salt], in the data set with erythropoietin (Hep3B cell line, 200 uM, 16 hours, relative to vehicle control, Disodium salt, 960 min), the EPO fold induction result was “++++ (++++ indicates 9-16fold)”.
Take `CS(=O)(=O)c1ccc(C(=O)N2CCc3c(sc4nc(O)c(C(=O)NCC(=O)O)c(=O)n34)C2)cc1` [Compound 42, {[2-Hydroxy-7-(4-methanesulfonyl-benzoyl)-4-oxo-5,6,7,8-tetrahydro-4H-9-thia-1,4a,7-triaza-fluorene-3-carbonyl]-amino}-acetic acid]: in the data set with erythropoietin (Homo sapiens, Hep3B, 16 h), the fold induction at 200 µM is 5 to 8.
Same read-out and setting: the figure for `CS(=O)(=O)N1CCc2c(sc3nc(O)c(C(=O)NCC(=O)O)c(=O)n23)C1` [Compound 3, [(2-Hydroxy-7-methanesulfonyl-4-oxo-5,6,7,8-tetrahydro-4H-9-thia-1,4a,7-triaza-fluorene-3-carbonyl)-amino]-acetic acid] is 2 to 4; for `CC(NC(=O)c1c(O)nc2sc3c(n2c1=O)CCC(C)(C)C3)C(=O)O` (stereo not shown) [Compound 40, 2-[(2-Hydroxy-7,7-dimethyl-4-oxo-5,6,7,8-tetrahydro-4H-9-thia-1,4a-diaza-fluorene-3-carbonyl)-amino]-propionic acid] it is 5 to 8.
The same measure, in the same setting: with `O=C(O)CNC(=O)c1c(O)nc2sc3c(n2c1=O)CCN(S(=O)(=O)c1ccc(OC(F)(F)F)cc1)C3` [Compound 19, {[2-Hydroxy-4-oxo-7-(4-trifluoromethoxy-benzenesulfonyl)-5,6,7,8-tetrahydro-4H-9-thia-1,4a,7-triaza-fluorene-3-carbonyl]-amino}-acetic acid] the figure was 2 to 4; with `O=C(O)CNC(=O)c1c(O)nc2sc3c(n2c1=O)CCN(C(=O)Cc1ccc(Cl)cc1)C3` [Compound 28, ({7-[2-(4-Chloro-phenyl)-acetyl]-2-hydroxy-4-oxo-5,6,7,8-tetrahydro-4H-9-thia-1,4a,7-triaza-fluorene-3-carbonyl}-amino)-acetic acid], 9 to 16.
As to `CCC1(CC)CCc2c(sc3nc(O)c(C(=O)NCC(=O)O)c(=O)n23)C1` [Compound 53, [(7,7-Diethyl-2-hydroxy-4-oxo-5,6,7,8-tetrahydro-4H-9-thia-1,4a-diaza-fluorene-3-carbonyl)-amino]-acetic acid], in the data set with erythropoietin (Homo sapiens, Hep3B, 16 h), the fold induction at 200 µM was less than 2.
